Measurements published in patent publication US20240408068A1, “Helicase Primase Inhibitors For Treating Cancer In A Combination Therapy With Oncolytic Viruses” (priority 2018, published 2024).

Tests used:
HSV-2 = assay: In vitro activity, HSV-2 infected Vero cells; format: cell-based; details: Human alphaherpesvirus 2, Vero
Procedure: The in vitro activity of the new compounds was measured as described in WO2017/174640 and in WO2019/068817.

CT26 tumor = assay: oHSV animal model: tumor volume in syngeneic bilaterally-inoculated subcutaneous CT26 tumor-bearing mice; format: in vivo, Balbc/j mice
Procedure: Assessment of the efficacy of an oncolytic virus treatment in the presence and absence of a potential virostatic test compound (Example 7(-)) in a syngeneic bilaterally-inoculated subcutaneous CT26 tumor-bearing mouse model.
CT26 tumor cells (500 000 cell in 100 μL) were subcutaneously inoculated bilaterally into the right and left flanks of 9 week-old immuno-competent female Balbc/j mice after 20 days acclimation (Provider: Charles River Laboratories—BP 0109—F 69592 L'Arbresle Cedex).
The inoculation procedure of colorectal CT26 tumors in mice was as follows: • At the end of the 20 days acclimation period, and in order to identify the animal all along the experimental procedure (for tumor volume monitoring in particular), mice were identified using tattoo. • The day before tumor cell inoculation, mice have been shaved at the injection sites, under isoflurane gas anesthesia (4% induction and 2% maintain). • The day of inoculation, mice were anesthetized with gas anesthesia with 4% isoflurane induction and 2% isoflurane for anesthesia maintaining. • Tumor cells to be inoculated were resuspended in sterile PBS and the needed volume was loaded in 1 ml syringe with a 26 gauge needle (500000 cells/100 μL).
Virus injection (with HSV-1 Herpes Simplex Virus or vehicle) was performed with a 29G gauge needle (0.5 mL) insulin syringe when tumors reached an average volume of 40 mm^3(on day 7). At this time, virus was injected intratumorally (50 μL corresponding to 5×10^6 HSV-1 (experimental groups 3, 5, 6 and 8) or 100 μL corresponding to 1×10^8 HSV-1 (experimental groups 4 and 7)), into the tumor of the right flank.
Pharmacological animal groups (8 animal per group, 64 animals in total) were organized as such: • 1. Control virus-untreated group: test compound vehicle (200 μL, 5% DMSO; 0.5% hydroxypropylmethylcellulose (HPMC) in PBS) oral gavage (20 gauge needle standard suspension applicator), once a day, for 10 days and starting 72 h after virus injection for the other groups. • 2. Control virus vehicle-treated group: 50 μL of virus vehicle, intratumoral injection when tumors reached an average volume of app. 40 mm^3, with test compound vehicle, oral gavage, once a day, for 10 days and starting 72 h after vehicle virus injection. • 3. HSV-1 (quantity 1; 5×10^6 pfu)-treated group: 50 μL of HSV-1 (5×10^6), intratumoral injection when tumors reached an average volume of app. 40 mm^3, with test compound vehicle, oral gavage, once a day, for 10 days and starting 72 h after virus injection, and with anti-PD1/anti-CTLA4 vehicle, intraperitoneal injection (200 μL PBS) on the same day as the virus injection, and then 3 administrations spaced 3 days apart each other (day 7, 10, 13 and 16). • 4. HSV-1 (quantity 2; 1×10^8 pfu)-treated group: 100 μL of HSV-1 (1×10^8) intratumoral injection when tumors reached an average volume of app. 40 mm^3, with test compound vehicle, oral gavage, once a day, for 10 days and starting 72 h after virus injection. • 5. HSV-1 (quantity 1; 5×10^6 pfu)-test compound-treated group: 50 μL of HSV-1 (5×10^6), intratumoral injection when tumors reached an average volume of app. 40 mm^3, with Example 7(-) (10 mg/kg, 20 mg/mL stock in DMSO, final 1 mg/mL, 5% DMSO; 0.5% HPMC in PBS (w/v), the suspension has been sonicated (2 min ultrasound bath, room temperature)), oral gavage (200 μL), once a day, for 10 days and starting 72 h after virus injection, and with anti-PD1/anti-CTLA4 vehicle, intraperitoneal injection (200 μL, PBS) on the same day as the virus injection, and then 3 administrations spaced 3 days apart each other (day 7, 10, 13 and 16). • 6. […]

[1] = day 0, with HSV-1 1·10^8, 10 mg/kg po from 72 h pi
[2] = day 0, with HSV-1 5·10^6, 10 mg/kg po from 0 h pi
[3] = day 0, with HSV-1 5·10^6, 10 mg/kg po from 72 h pi
[4] = day 5, with HSV-1 1·10^8, 10 mg/kg po from 72 h pi
[5] = day 5, with HSV-1 5·10^6, 10 mg/kg po from 0 h pi
[6] = day 5, with HSV-1 5·10^6, 10 mg/kg po from 72 h pi
[7] = day 7, with HSV-1 1·10^8, 10 mg/kg po from 72 h pi
[8] = day 7, with HSV-1 5·10^6, 10 mg/kg po from 0 h pi
[9] = day 7, with HSV-1 5·10^6, 10 mg/kg po from 72 h pi
[10] = day 10, with HSV-1 1·10^8, 10 mg/kg po from 72 h pi
[11] = day 10, with HSV-1 5·10^6, 10 mg/kg po from 0 h pi
[12] = day 10, with HSV-1 5·10^6, 10 mg/kg po from 72 h pi
[13] = day 12, with HSV-1 1·10^8, 10 mg/kg po from 72 h pi
[14] = day 12, with HSV-1 5·10^6, 10 mg/kg po from 0 h pi
[15] = day 12, with HSV-1 5·10^6, 10 mg/kg po from 72 h pi
[16] = day 14, with HSV-1 1·10^8, 10 mg/kg po from 72 h pi
[17] = day 14, with HSV-1 5·10^6, 10 mg/kg po from 0 h pi
[18] = day 14, with HSV-1 5·10^6, 10 mg/kg po from 72 h pi
[19] = day 17, with HSV-1 1·10^8, 10 mg/kg po from 72 h pi
[20] = day 17, with HSV-1 5·10^6, 10 mg/kg po from 0 h pi
[21] = day 17, with HSV-1 5·10^6, 10 mg/kg po from 72 h pi
[22] = day 19, with HSV-1 1·10^8, 10 mg/kg po from 72 h pi
[23] = day 19, with HSV-1 5·10^6, 10 mg/kg po from 0 h pi
[24] = day 19, with HSV-1 5·10^6, 10 mg/kg po from 72 h pi

Cc1nc(N(C)C(=O)Cc2ccc(-c3cc(F)ccc3F)cc2)sc1[S@@](C)(=N)=O [Example 7(−), (−)-(S)-2-(2′,5′-Difluoro-[1,1′-biphenyl]-4-yl)-N-methyl-N-(4-methyl-5-(S-methylsulfonimidoyl)thiazol-2-yl)acetamide]
IC50 (HSV-2): 0.01 to 0.05 µM | Median tumor volume - Left tumors (CT26 tumor; [1]): 0 mm^3 | Median tumor volume - Right tumors (CT26 tumor; [1]): 0 mm^3 | Median tumor volume - Right tumors (CT26 tumor; day 0, with HSV-1 5·10^6 + aPD-1 + aCTLA4, 10 mg/kg po from 72 h pi): 0 mm^3 | Median tumor volume - Left tumors (CT26 tumor; day 0, with HSV-1 5·10^6 + aPD-1 + aCTLM, 10 mg/kg po from 72 h pi): 0 mm^3 | Median tumor volume - Left tumors (CT26 tumor; [2]): 0 mm^3 | Median tumor volume - Right tumors (CT26 tumor; [2]): 0 mm^3 | Median tumor volume - Left tumors (CT26 tumor; [3]): 0 mm^3 | Median tumor volume - Right tumors (CT26 tumor; [3]): 0 mm^3 | Median tumor volume - Left tumors (CT26 tumor; [4]): 18.17 mm^3 | Median tumor volume - Right tumors (CT26 tumor; [4]): 16.55 mm^3 | Median tumor volume - Right tumors (CT26 tumor; day 5, with HSV-1 5·10^6 + aPD-1 + aCTLA4, 10 mg/kg po from 72 h pi): 16.235 mm^3 | Median tumor volume - Left tumors (CT26 tumor; day 5, with HSV-1 5·10^6 + aPD-1 + aCTLM, 10 mg/kg po from 72 h pi): 14.66 mm^3 | Median tumor volume - Left tumors (CT26 tumor; [5]): 15.755 mm^3 | Median tumor volume - Right tumors (CT26 tumor; [5]): 16.705 mm^3 | Median tumor volume - Left tumors (CT26 tumor; [6]): 14.155 mm^3 | Median tumor volume - Right tumors (CT26 tumor; [6]): 17.665 mm^3 | Median tumor volume - Left tumors (CT26 tumor; [7]): 23.55 mm^3 | Median tumor volume - Right tumors (CT26 tumor; [7]): 39.735 mm^3 | Median tumor volume - Right tumors (CT26 tumor; day 7, with HSV-1 5·10^6 + aPD-1 + aCTLA4, 10 mg/kg po from 72 h pi): 31.03 mm^3 | Median tumor volume - Left tumors (CT26 tumor; day 7, with HSV-1 5·10^6 + aPD-1 + aCTLM, 10 mg/kg po from 72 h pi): 18.32 mm^3 | Median tumor volume - Left tumors (CT26 tumor; [8]): 21.61 mm^3 | Median tumor volume - Right tumors (CT26 tumor; [8]): 25.5 mm^3 | Median tumor volume - Left tumors (CT26 tumor; [9]): 22.85 mm^3 | Median tumor volume - Right tumors (CT26 tumor; [9]): 36.435 mm^3 | Median tumor volume - Left tumors (CT26 tumor; [10]): 33.055 mm^3 | Median tumor volume - Right tumors (CT26 tumor; [10]): 74.725 mm^3 | Median tumor volume - Right tumors (CT26 tumor; day 10, with HSV-1 5·10^6 + aPD-1 + aCTLA4, 10 mg/kg po from 72 h pi): 72.935 mm^3 | Median tumor volume - Left tumors (CT26 tumor; day 10, with HSV-1 5·10^6 + aPD-1 + aCTLM, 10 mg/kg po from 72 h pi): 47.345 mm^3 | Median tumor volume - Left tumors (CT26 tumor; [11]): 43.385 mm^3 | Median tumor volume - Right tumors (CT26 tumor; [11]): 43.32 mm^3 | Median tumor volume - Left tumors (CT26 tumor; [12]): 55.18 mm^3 | Median tumor volume - Right tumors (CT26 tumor; [12]): 45.605 mm^3 | Median tumor volume - Left tumors (CT26 tumor; [13]): 92.98 mm^3 | Median tumor volume - Right tumors (CT26 tumor; [13]): 115.17 mm^3 | Median tumor volume - Right tumors (CT26 tumor; day 12, with HSV-1 5·10^6 + aPD-1 + aCTLA4, 10 mg/kg po from 72 h pi): 94.56 mm^3 | Median tumor volume - Left tumors (CT26 tumor; day 12, with HSV-1 5·10^6 + aPD-1 + aCTLM, 10 mg/kg po from 72 h pi): 58.12 mm^3 | Median tumor volume - Left tumors (CT26 tumor; [14]): 73.31 mm^3 | Median tumor volume - Right tumors (CT26 tumor; [14]): 48.78 mm^3 | Median tumor volume - Left tumors (CT26 tumor; [15]): 121.82 mm^3 | Median tumor volume - Right tumors (CT26 tumor; [15]): 76.655 mm^3 | Median tumor volume - Left tumors (CT26 tumor; [16]): 224.29 mm^3 | Median tumor volume - Right tumors (CT26 tumor; [16]): 142.49 mm^3 | Median tumor volume - Right tumors (CT26 tumor; day 14, with HSV-1 5·10^6 + aPD-1 + aCTLA4, 10 mg/kg po from 72 h pi): 105.02 mm^3 | Median tumor volume - Left tumors (CT26 tumor; day 14, with HSV-1 5·10^6 + aPD-1 + aCTLM, 10 mg/kg po from 72 h pi): 71.44 mm^3 | Median tumor volume - Left tumors (CT26 tumor; [17]): 112.98 mm^3 | Median tumor volume - Right tumors (CT26 tumor; [17]): 39.01 mm^3 | Median tumor volume - Left tumors (CT26 tumor; [18]): 141.445 mm^3 | Median tumor volume - Right tumors (CT26 tumor; [18]): 86.87 mm^3 | Median tumor volume - Left tumors (CT26 tumor; [19]): 348.78 mm^3 | Median tumor volume - Right tumors (CT26 tumor; [19]): 93.34 mm^3 | Median tumor volume - Right tumors (CT26 tumor; day 17, with HSV-1 5·10^6 + aPD-1 + aCTLA4, 10 mg/kg po from 72 h pi): 60.17 mm^3 | Median tumor volume - Left tumors (CT26 tumor; day 17, with HSV-1 5·10^6 + aPD-1 + aCTLM, 10 mg/kg po from 72 h pi): 66.86 mm^3 | Median tumor volume - Left tumors (CT26 tumor; [20]): 169.68 mm^3 | Median tumor volume - Right tumors (CT26 tumor; [20]): 60.71 mm^3 | Median tumor volume - Left tumors (CT26 tumor; [21]): 219.98 mm^3 | Median tumor volume - Right tumors (CT26 tumor; [21]): 99.21 mm^3 | Median tumor volume - Left tumors (CT26 tumor; [22]): 352.82 mm^3 | Median tumor volume - Right tumors (CT26 tumor; [22]): 100 mm^3 | Median tumor volume - Right tumors (CT26 tumor; day 19, with HSV-1 5·10^6 + aPD-1 + aCTLA4, 10 mg/kg po from 72 h pi): 84.68 mm^3 | Median tumor volume - Left tumors (CT26 tumor; day 19, with HSV-1 5·10^6 + aPD-1 + aCTLM, 10 mg/kg po from 72 h pi): 49.84 mm^3 | Median tumor volume - Left tumors (CT26 tumor; [23]): 474.53 mm^3 | Median tumor volume - Right tumors (CT26 tumor; [23]): 72.69 mm^3 | Median tumor volume - Left tumors (CT26 tumor; [24]): 285.49 mm^3 | Median tumor volume - Right tumors (CT26 tumor; [24]): 105 mm^3
